# Test results as given in article PMC11363342 (ACS Central Science, 2024).
# Where two headings read alike, the source gives them in different places.
# Columns and labels:
# [1] = in vitro; details: African green monkey
# [2] = tested on: SARS-CoV-2; test: microbe, parasite or virus in culture; assay type: cell-based
# [3] = tested on: GBA2; details: cited from earlier work
# [4] = tested on: GBA1; details: cited from earlier work
# [5] = tested on: SARS-CoV-2; test: CPE reduction assay on H1299/ACE2 lung epithelial cells; assay type: cell-based; details: compared with Vero E6
# [6] = tested on: SARS-CoV-2; test: Viral load reduction assay in ALI-PBEC; assay type: cell-based; details: 48 hpi
# Procedure: Thus, ALI-PBEC cells were infected with SARS-CoV-2 (10^5 PFU per insert; estimated MOI ∼0.1) and treated with compounds on the apical side of the cells for 2 h. For uninfected controls, PBS was used instead of virus. The compounds were also present in the basal medium during the whole experiment until 48 hpi, when samples were harvested. […] (Figure 4D).
# ALI-PBEC were pretreated with compound in the basal medium for 3 h. Cells were infected with 100 000 PFU of SARS-CoV-2/Leiden0008 per insert (estimated MOI 0.1) with compounds present in the inoculum. After 2 h at 37 °C on a rocking platform, the inoculum was removed and cells were washed three times with warm PBS. Compounds stayed present in the basal medium until 48 h postinfection. At 48 hpi the viral load was determined by plaque assay on a 200 μL apical wash (PBS incubated on the apical side of the insets for 10 min at 37 °C). For assessing cytotoxicity with the CyQuant LDH cytotoxicity assay (Thermo Fisher Scientific), 10 μL of apical wash was diluted 5 times with 40 μL of PBS. A 25 μL volume of this dilution was added to 25 μL of assay reagent and incubated for 30 min at RT in the dark. The plate was fixed and measured at a wavelength of 490 nm (Envision reader, PerkinElmer). For the activity-based probe labeling, the insets were washed one more time with PBS and processed as described previously.[52] Briefly, cells were lysed with 60 μL of potassium phosphate buffer per insert. A fluorescently labeled probe (JJB383) was diluted in MclIvaine buffer (pH 7) to a 10 μM stock and incubated for 5 min on ice. For labeling of the cell lysate, 10 μL of lysate was added to 10 μL of MclIvaine buffer and 5 μL of probe. The lysate was incubated for 30 min at 37 °C before the addition of 10 μL of Laemmli sample buffer (4×). Samples were heated at 95 °C for 5 min and separated in a 10% SDS-PAGE gel. Fluorescence was measured at a wavelength of 625 nm (Cy5) with a Uvitec Alliance Q9 imager (BioSPX). After imaging, the gels were stained with GelCode Blue stain reagent (Thermo Fisher Scientific) and visualized using a Uvitec Essential V6 system to check for equal loading.
# [7] = tested on: recombinant Mus musculus α-Glu II; test: Thermal shift assay (SYPRO orange); assay type: binding; details: 10 μM Mmα-Glu-II with 50 μM inhibitor; unliganded control 49.9 °C
# [8] = tested on: HCoV-229E; assay type: cell-based
# [9] = tested on: SARS-CoV-2; test: Plaque reduction assay on H1299/ACE2 cells (time of treatment); assay type: cell-based; details: H1299/ACE2; compound 11 at 5 μM
# Procedure: To evaluate whether compound 11 has an effect on host proteins (for instance, ACE2) involved in viral entry, we treated monolayers of H1299/ACE2 cells with compound 11 either 48 or 2 h before infection, during infection (0–1 h), or starting from 1 h postinfection (hpi). The cell monolayers were infected with ∼20 PFU of SARS-CoV-2, and after 1 h the inoculum was replaced with an overlay. In one well (Post Infection) the overlay contained compound 11. Remdesivir, a viral RNA synthesis inhibitor, was added to the overlay of another well, as a positive control for blocking virus replication in the cell.
# H1299/ACE2 cells were seeded in a 6-well plate at a density of 1.3 × 10^5 cells/well (20% confluency), 96 h prior to infection. […] The monolayers were infected with ∼20 PFU of SARS-CoV-2/Leiden0008. In the postinfection treatment, the compound (or RDV) was added to the Avicel overlay. Cells were incubated for 4 days at 37 °C before fixation and crystal violet staining.
# [10] = tested on: SARS-CoV-2; assay type: cell-based
# [11] = tested on: GBA3; details: cited from earlier work
# [12] = Severe acute respiratory syndrome coronavirus 2, Vero C1008, Vero E6 cells, SARS-CoV-2/Leiden0002, n = 3, mean ± SEM, read-out: EC50 (μM), SARS-CoV-2 CPE reduction
# [13] = Severe acute respiratory syndrome coronavirus 2, Vero C1008, read-out: EC50 (μM), SARS-CoV-2 CPE reduction
Compound,CC50 at 3 days [1] [µM],"EC50 [2, 12] [µM]",further results
OC[C@H]1[C@@H](O)[C@H](O)[C@@H](O)CN1CCCCCOCC12CC3CC(CC(C3)C1)C2 [Compound 8],> 200,104 ± 12.4,–
OC[C@H]1C[C@H]2[C@@H]([C@@H](O)[C@@H]1O)N2CCCCCOCc1ccc2ccccc2c1 (some centres unmarked) [Compound 23],> 200,–,"EC50 [2, 13]: 64.9 ± 0.77 µM"
OC[C@H]1C[C@H]2[C@@H]([C@@H](O)[C@@H]1O)N2CCCCCOCC12CC3CC(CC(C3)C1)C2 (some centres unmarked) [Compound 27],100,–,"EC50 [2, 13]: 26.9 ± 1.3 µM"
O=S1(=O)N[C@@H]2[C@H](O)[C@@H](O)[C@H](O)[C@@H](CO)[C@@H]2O1 [Compound 18],> 200,> 100,–
"OC[C@@H]1[C@@H](O)[C@H](O)[C@@H](O)[C@H]2O[C@@H]12 [Compound 9, 1,6-epi-cyclophellitol]",> 200,> 200,inhibition of GBA2 [3]: partially inhibit; inhibition of GBA1 [4]: partially inhibit
CCCCN1[C@@H]2[C@@H](O)[C@H](O)[C@@H](CO)C[C@@H]21 (some centres unmarked) [Compound 26],> 200,–,"EC50 [2, 13]: 91.4 ± 20.6 µM"
CO[C@@H]1[C@@H](O)[C@H](O)[C@@H](CO)[C@@H]2OS(=O)(=O)O[C@H]12 [Compound 12],> 200,> 200,–
"OC[C@@H]1[C@@H](O)[C@H](O)[C@@H](O)CN1CCCCCOCc1ccc2ccccc2c1 [Compound 2, naphthyl-deoxynojirimycin]",> 200,6 ± 0.4,EC50 values in CPE reduction assay (in words) [5]: comparable EC50 values; viral load in ALI-PBEC (in words) ([6]; 10 and 100 μM): reduced SARS-CoV-2 to similar titers; Tm/°C [7]: 63.5 °C; virus infectivity of HCoV-229E (in words) [8]: did not show any reduction in virus infectivity
O=S1(=O)N[C@H]2[C@H](CO)[C@@H](O)[C@H](O)[C@@H](O)[C@H]2O1 [Compound 17],> 200,45.3 ± 1.52,–
"CCC(CC)COC(=O)[C@H](C)N[P@](=O)(OC[C@H]1O[C@@](C#N)(c2ccc3c(N)ncnn23)[C@H](O)[C@@H]1O)Oc1ccccc1 [remdesivir, reference compound]",–,–,"plaque formation, treatment after infection (in the overlay) [9]: prevented the formation of plaques"
OC[C@H]1C[C@@H]2O[C@@H]2[C@@H](O)[C@@H]1O [Compound 20],> 200,17.7 ± 1.28,Tm/°C [7]: 64.7 °C
CO[C@H]1[C@H]2OS(=O)(=O)O[C@H]2[C@H](CO)[C@@H](O)[C@@H]1OC [Compound 16],> 200,> 200,–
CC(C)(C)COCCCCCN1C[C@H](O)[C@@H](O)[C@H](O)[C@H]1CO [Compound 7],> 200,22.7 ± 4.3,–
CO[C@H]1[C@H](O)[C@@H](O)[C@H]2OS(=O)(=O)O[C@H]2[C@@H]1CO [Compound 14],> 200,16.9 ± 2.1,–
"CCCCN1C[C@H](O)[C@@H](O)[C@H](O)[C@H]1CO [Compound 1, N-butyl-DNJ, reference compound]",> 200,114 ± 10.3,"reduction of infectious progeny production (in words) [10]: only minimally; inhibition of GBA3 [11]: inhibits; EC50 ([2]; Vero E6 cells, SARS-CoV-2/Leiden0002, n = 3, mean ± SEM, read-out: EC50 (μM), SARS-CoV-2 CPE reduction): > 100 µM; viral load in ALI-PBEC (in words) ([6]; 100 μM (highest concentration)): only a slight effect"
OC[C@@H]1[C@@H](O)[C@H](O)[C@@H](O)CN1CCCCCOCC12CC3CC(CC(C3)C1)C2 [Compound 5],200,13.9 ± 8,–
"COCCCCCCCCCN1C[C@H](O)[C@@H](O)[C@H](O)[C@H]1CO [UV-4, reference compound]",–,–,EC50 values in CPE reduction assay (in words) [5]: comparable EC50 values
OC[C@H]1C[C@H]2[C@@H]([C@@H](O)[C@@H]1O)N2CCCCCOCc1cccc2ccccc12 (some centres unmarked) [Compound 28],> 200,–,"EC50 [2, 13]: 56.7 ± 1.38 µM"
COC[C@@H]1[C@@H](O)[C@H](O)[C@@H](O)[C@H]2OS(=O)(=O)O[C@@H]12 [Compound 15],> 200,> 100,–
"OC[C@@H]1[C@@H](O)[C@H](O)[C@@H](O)[C@H]2N[C@@H]12 [Compound 10, 1,6-epi-cyclophellitol aziridine]",> 200,14 ± 3.2,inhibition of GBA2 [3]: partially inhibit; inhibition of GBA1 [4]: partially inhibit
CCCC(=O)N1[C@@H]2[C@@H](O)[C@H](O)[C@@H](CO)C[C@@H]21 [Compound 25],> 200,22.2 ± 4.12,–
CO[C@H]1[C@H](O)[C@@H](CO)[C@@H]2OS(=O)(=O)O[C@@H]2[C@@H]1O [Compound 13],> 200,> 200,–
CCCCCCOCCCCCN1C[C@H](O)[C@@H](O)[C@H](O)[C@H]1CO [Compound 6],> 200,11.8 ± 0.8,–
O=S1(=O)O[C@@H]2[C@@H](O)[C@H](O)[C@@H](CO)C[C@@H]2O1 [Compound 22],> 200,> 200,Tm/°C [7]: 51.7 °C
OC[C@@H]1[C@@H](O)[C@H](O)[C@@H](O)CN1CCCCCOCC1CCCO1 (some centres unmarked) [Compound 4],> 200,51.7 ± 3.37,–
OC[C@@H]1[C@@H](O)[C@H](O)[C@@H](O)CN1CCCCCOCc1cc2ccccc2c2ccccc12 [Compound 3],–,3.25 ± 0.42,CC50 [1]: 50 µM
O=S1(=O)N[C@@H]2[C@H](O)[C@@H](O)[C@H](O)[C@@H](CO)[C@@H]2N1 [Compound 19],> 200,> 200,–
OC[C@H]1C[C@@H]2N[C@@H]2[C@@H](O)[C@@H]1O [Compound 21],> 200,–,"EC50 [2, 13]: 67.6 ± 14.8 µM; Tm/°C [7]: 49.5 °C"
OC[C@H]1C[C@H]2[C@@H]([C@@H](O)[C@@H]1O)N2CCCCCOCc1ccc(-c2ccccc2)cc1 (some centres unmarked) [Compound 24],200,–,"EC50 [2, 13]: 28.6 ± 0.21 µM"
